Source: ChEMBL document CHEMBL4229471, “Antiprotozoal and cysteine proteases inhibitory activity of dipeptidyl enoates” (Bioorg Med Chem, 2018)
Values after ≈ are worked out from the molar mass of the structure shown. Active and inactive are the calls of the source. No cut-off for these calls is given here.

Experiments:
Cathepsin B [1] = molecular target: T1, Cathepsin B (Homo sapiens, UniProt P07858); experiment: Inhibition of human cathepsin B at 20 uM using Cbz-Phe-Arg-AMC as substrate relative to control
Procathepsin L [2] = molecular target: T2, Procathepsin L (Homo sapiens, UniProt P07711); experiment: Inhibition of human cathepsin L at 20 uM using Cbz-Phe-Arg-AMC as substrate relative to control
Target sequence in this assay (P07711 114-333 limits assumed): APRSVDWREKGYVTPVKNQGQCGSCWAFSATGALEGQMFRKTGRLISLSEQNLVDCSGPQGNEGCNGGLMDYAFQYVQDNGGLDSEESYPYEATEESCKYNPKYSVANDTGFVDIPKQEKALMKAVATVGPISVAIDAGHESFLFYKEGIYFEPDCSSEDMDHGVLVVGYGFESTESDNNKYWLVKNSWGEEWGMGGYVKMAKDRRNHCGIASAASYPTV

[3] = molecular target: T3, Falcipain 2 (Plasmodium falciparum) (UniProt Q9N6S8); experiment: Inhibition of Plasmodium falciparum falcipain-2 at 20 uM using Cbz-Phe-Arg-AMC as substrate measured for 15 mins by spectrofluorimetric method relative to control
T3 sequence (whole entry): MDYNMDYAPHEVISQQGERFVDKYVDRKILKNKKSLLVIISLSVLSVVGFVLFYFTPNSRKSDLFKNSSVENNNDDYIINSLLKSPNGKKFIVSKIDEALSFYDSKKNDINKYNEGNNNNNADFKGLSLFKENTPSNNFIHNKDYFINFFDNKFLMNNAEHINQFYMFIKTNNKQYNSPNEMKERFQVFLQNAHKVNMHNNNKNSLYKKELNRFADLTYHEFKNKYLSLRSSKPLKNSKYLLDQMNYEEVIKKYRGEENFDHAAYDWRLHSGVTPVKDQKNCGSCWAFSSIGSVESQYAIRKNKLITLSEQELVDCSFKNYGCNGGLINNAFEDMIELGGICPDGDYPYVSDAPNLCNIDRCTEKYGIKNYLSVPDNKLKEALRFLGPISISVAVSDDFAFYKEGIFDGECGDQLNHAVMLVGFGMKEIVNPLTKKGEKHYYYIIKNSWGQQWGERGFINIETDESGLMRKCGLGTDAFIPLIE

[4] = molecular target: Rhodesain (Trypanosoma brucei rhodesiense) (UniProt Q95PM0); experiment: Inhibition of Trypanosoma brucei rhodesiense rhodesain at 20 uM using Cbz-Phe-Arg-AMC as substrate measured for 30 mins by fluorescence method relative to control
Chain of Rhodesain (Trypanosoma brucei rhodesiense) (Q95PM0 1-450): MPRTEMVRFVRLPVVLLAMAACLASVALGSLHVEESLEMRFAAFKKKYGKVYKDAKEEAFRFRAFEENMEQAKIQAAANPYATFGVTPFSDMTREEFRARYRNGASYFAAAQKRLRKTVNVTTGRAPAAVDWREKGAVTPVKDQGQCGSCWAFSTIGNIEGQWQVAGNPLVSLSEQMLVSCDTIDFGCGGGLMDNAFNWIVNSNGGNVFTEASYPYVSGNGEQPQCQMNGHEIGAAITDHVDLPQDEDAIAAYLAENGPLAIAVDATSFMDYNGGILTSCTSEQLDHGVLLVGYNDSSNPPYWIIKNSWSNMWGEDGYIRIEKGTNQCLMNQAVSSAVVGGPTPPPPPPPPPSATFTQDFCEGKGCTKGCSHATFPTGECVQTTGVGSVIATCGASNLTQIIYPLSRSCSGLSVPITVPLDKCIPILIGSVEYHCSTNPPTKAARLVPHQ

[5] = molecular target: Cruzipain (Trypanosoma cruzi) (UniProt P25779); experiment: Inhibition of Trypanosoma cruzi cruzain at 20 uM relative to control
Chain of Cruzipain (Trypanosoma cruzi) (P25779 123-467 limits assumed): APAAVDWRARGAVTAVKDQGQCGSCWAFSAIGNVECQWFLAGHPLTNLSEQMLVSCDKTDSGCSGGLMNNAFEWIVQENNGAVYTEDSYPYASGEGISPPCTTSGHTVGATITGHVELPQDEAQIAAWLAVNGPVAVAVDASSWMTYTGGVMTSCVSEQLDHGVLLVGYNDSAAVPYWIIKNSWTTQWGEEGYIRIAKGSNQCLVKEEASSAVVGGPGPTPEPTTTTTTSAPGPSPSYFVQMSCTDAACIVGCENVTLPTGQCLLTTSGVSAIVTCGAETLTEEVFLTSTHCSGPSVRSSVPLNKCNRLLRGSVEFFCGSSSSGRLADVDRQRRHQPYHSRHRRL

Cathepsin B [6] = molecular target: T1, Cathepsin B; experiment: Inhibition of human cathepsin B assessed as second order rate constant using Cbz-Phe-Arg-AMC as substrate
Procathepsin L [7] = molecular target: T2, Procathepsin L; experiment: Inhibition of human cathepsin L using Cbz-Phe-Arg-AMC as substrate
Target sequence in this assay (P07711 whole entry): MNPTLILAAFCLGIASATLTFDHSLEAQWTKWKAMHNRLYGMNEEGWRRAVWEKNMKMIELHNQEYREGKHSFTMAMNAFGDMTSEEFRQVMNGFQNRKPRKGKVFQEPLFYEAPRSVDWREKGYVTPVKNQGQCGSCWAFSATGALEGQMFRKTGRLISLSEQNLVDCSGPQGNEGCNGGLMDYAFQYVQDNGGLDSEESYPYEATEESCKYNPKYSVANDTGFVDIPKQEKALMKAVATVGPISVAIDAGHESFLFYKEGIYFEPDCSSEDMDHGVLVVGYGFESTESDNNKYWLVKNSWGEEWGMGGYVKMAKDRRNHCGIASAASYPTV

Procathepsin L [8] = molecular target: T2, Procathepsin L; experiment: Inhibition of human cathepsin L assessed as second order rate constant using Cbz-Phe-Arg-AMC as substrate
Target sequence in this assay (P07711 114-333 limits assumed): as the sequence (P07711 114-333 limits assumed) above

Falcipain 2 = molecular target: T4, Falcipain 2 (Plasmodium falciparum, UniProt Q9N6S8); experiment: Inhibition of Plasmodium falciparum falcipain-2 using Cbz-Phe-Arg-AMC as substrate measured for 15 mins by spectrofluorimetric method
T4 sequence (Q9N6S8 whole entry): T3 sequence (whole entry)

[9] = molecular target: T3, Falcipain 2 (Plasmodium falciparum); experiment: Inhibition of Plasmodium falciparum falcipain-2 assessed as second-order rate constant using Cbz-Phe-Arg-AMC as substrate measured for 15 mins by spectrofluorimetric method
[10] = molecular target: Rhodesain (Trypanosoma brucei rhodesiense) (UniProt Q95PM0); experiment: Inhibition of Trypanosoma brucei rhodesiense rhodesain assessed as second-order rate constant using Cbz-Phe-Arg-AMC as substrate measured for 30 mins by fluorescence method
Cruzipain = Cruzipain (Trypanosoma cruzi, UniProt P25779); experiment: Inhibition of Trypanosoma cruzi cruzain
Chain of Cruzipain (P25779 whole entry): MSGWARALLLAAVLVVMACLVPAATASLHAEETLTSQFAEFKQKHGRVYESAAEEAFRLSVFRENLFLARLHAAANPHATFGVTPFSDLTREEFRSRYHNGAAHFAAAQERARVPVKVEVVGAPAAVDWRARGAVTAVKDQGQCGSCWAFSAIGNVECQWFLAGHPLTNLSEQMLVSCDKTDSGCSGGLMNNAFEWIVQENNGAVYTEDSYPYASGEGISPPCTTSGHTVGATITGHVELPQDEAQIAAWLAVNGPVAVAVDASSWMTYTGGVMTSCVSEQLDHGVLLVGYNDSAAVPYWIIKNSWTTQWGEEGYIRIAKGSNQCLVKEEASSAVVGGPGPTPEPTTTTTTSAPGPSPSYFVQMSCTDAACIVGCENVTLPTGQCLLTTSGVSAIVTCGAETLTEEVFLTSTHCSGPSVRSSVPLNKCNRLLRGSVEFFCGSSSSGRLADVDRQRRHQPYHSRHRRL

[11] = molecular target: Cruzipain (Trypanosoma cruzi) (UniProt P25779); experiment: Inhibition of Trypanosoma cruzi cruzain assessed as second-order rate constant
Cathepsin B [12] = molecular target: T1, Cathepsin B; experiment: Inhibition of human cathepsin B using Cbz-Phe-Arg-AMC as substrate
Rhodesain = Rhodesain (Trypanosoma brucei rhodesiense, UniProt Q95PM0); experiment: Inhibition of Trypanosoma brucei rhodesiense rhodesain using Cbz-Phe-Arg-AMC as substrate measured for 30 mins by fluorescence method
Chain of Rhodesain (Q95PM0 whole entry): as the sequence (Q95PM0 1-450) above

Plasmodium falciparum = experiment: Antimalarial activity against erythrocytic stage of synchronized Plasmodium falciparum Dd2 after 48 hrs by Picogreen dye based fluorescence assay; assay type: functional, organism-based; details: Dd2, 48 h
[13] = Cytotoxicity against human HepG2 cells assessed as cell viability at 1 uM measured after 24 hrs by spectrophotometric method relative to control; assay type: cell-based; details: read-out: Activity
Trypanosoma cruzi = experiment: Antitrypanosomal activity against Trypanosoma cruzi Tulahuen strain C2C4 amastigote forms harboring LacZ infected in rat L6 cells after 96 hrs by CPRG/Nonidet reagent based photometric method; assay type: functional, organism-based; details: Tulahuen strain C2C4, L6, 96 h
[14] = molecular target: T3, Falcipain 2 (Plasmodium falciparum); experiment: Irreversible inhibition of Plasmodium falciparum falcipain-2 using Cbz-Phe-Arg-AMC as substrate pretreated for 30 mins followed by substrate addition and measured for 30 mins by dialysis method
[15] = molecular target: Rhodesain (Trypanosoma brucei rhodesiense) (UniProt Q95PM0); experiment: Irreversible inhibition of Trypanosoma brucei rhodesiense rhodesain using Cbz-Phe-Arg-AMC as substrate pretreated for 30 mins followed by substrate addition and measured for 30 mins by dialysis method
[16] = molecular target: Cruzipain (Trypanosoma cruzi) (UniProt P25779); experiment: Irreversible inhibition of Trypanosoma cruzi cruzain pretreated for 30 mins followed by substrate addition and measured for 30 mins by dialysis method

inhibition [3] | Structure (SMILES) | inhibition (Cathepsin B [1]) | inhibition (Procathepsin L [2]) | inhibition [4] | inhibition [5] | K (Cathepsin B [6]) | IC50 (Procathepsin L [7]) | K (Procathepsin L [8]) | K [10] | IC50 (Cruzipain) | K [11] | IC50 (Cathepsin B [12]) | IC50 (Rhodesain) | other results
5% | CCOC(=O)/C=C/[C@H](O)[C@H](CCc1ccccc1)C(=O)N[C@@H](Cc1ccccc1)C(=O)OCc1ccccc1 | 25% | 0% | 6% |  |  |  |  |  |  |  |  |  | 
11% | CCOC(=O)/C=C/[C@@H](O)[C@H](CCc1ccccc1)NC(=O)[C@H](CC(C)C)NC(=O)OCc1ccccc1 | 10% | 14% | 0% | 9% |  |  |  |  |  |  |  |  | 
 | CCOC(=O)/C=C/[C@@H](O)[C@H](CCc1ccccc1)NC(=O)[C@H](Cc1ccccc1)NC(=O)N1CCOCC1 | 100% | 98% | 99% | 95% | 4190 to 4200 M⁻¹ s⁻¹ |  | 1900 M⁻¹ s⁻¹ | 36700 M⁻¹ s⁻¹ |  | 3600 M⁻¹ s⁻¹ |  |  | 
 | CCOC(=O)/C=C/C(=O)[C@H](CCc1ccccc1)NC(=O)[C@H](CC(C)C)NC(=O)N1CCOCC1 | 100% | 100% | 100% |  | 31400 M⁻¹ s⁻¹ | 210 nM | 19600 M⁻¹ s⁻¹ | 120000 M⁻¹ s⁻¹ | 340 nM | 5600 M⁻¹ s⁻¹ | 140 nM | 140 nM | IC50 (Plasmodium falciparum): 17700 nM; viability at 24 h, 1 µM [13]: 100%
 | CCOC(=O)/C=C/C(=O)[C@H](CC(C)C)NC(=O)[C@H](Cc1ccccc1)NC(=O)OCc1ccccc1 | 100% | 100% | 100% | 100% | 138000 M⁻¹ s⁻¹ | 10 nM | 759000 M⁻¹ s⁻¹ | 1.61e+06 M⁻¹ s⁻¹ | 20 nM | 517000 M⁻¹ s⁻¹ | 50 nM | 20 nM | IC50 (Plasmodium falciparum): 14900 nM; viability at 24 h, 1 µM [13]: 100%
9% | CCOC(=O)/C=C/[C@H](O)[C@H](CCc1ccccc1)C(=O)N[C@@H](Cc1ccccc1)C(=O)OC | 0% | 0% | 4% |  |  |  |  |  |  |  |  |  | 
 | O=C(Cn1ccnc1[N+](=O)[O-])NCc1ccccc1 [BENZNIDAZOLE] |  |  |  |  |  |  |  |  |  |  |  |  | IC50 (Trypanosoma cruzi): 0.5 µg/mL (≈ 1.92 µM)
98% | CCOC(=O)/C=C/C(=O)[C@H](C)NC(=O)[C@H](CC(C)C)NC(=O)OCc1ccccc1 | 100% | 99% | 99% | 99% | 85500 M⁻¹ s⁻¹ | 500 nM | 9800 M⁻¹ s⁻¹ | 14200 M⁻¹ s⁻¹ |  | 14400 M⁻¹ s⁻¹ |  |  | IC50 (Falcipain 2): 1200 nM; K [9]: 12000 M⁻¹ s⁻¹
 | CCOC(=O)/C=C/C(=O)[C@H](CC(C)C)NC(=O)[C@H](CC(C)C)NC(=O)N1CCOCC1 | 100% | 100% | 100% | 100% | 49500 M⁻¹ s⁻¹ | 90 nM | 52200 M⁻¹ s⁻¹ | 324000 M⁻¹ s⁻¹ | 200 nM | 10600 M⁻¹ s⁻¹ | 90 nM | 110 nM | 
 | CCOC(=O)/C=C/C(=O)[C@@H](CC(C)C)NC(=O)[C@H](Cc1ccccc1)NC(=O)OCc1ccccc1 | 100% | 100% | 100% | 100% | 117000 M⁻¹ s⁻¹ | 10 nM | 704000 M⁻¹ s⁻¹ | 1.53e+06 M⁻¹ s⁻¹ | 20 nM | 312000 M⁻¹ s⁻¹ | 60 nM | 30 nM | 
 | CCOC(=O)/C=C/C(=O)[C@@H](CCc1ccccc1)NC(=O)[C@H](Cc1ccccc1)NC(=O)N1CCOCC1 | 99% | 100% | 99% | 99% | 108000 M⁻¹ s⁻¹ | > 2000 nM |  | 62400 M⁻¹ s⁻¹ | 330 nM | 22000 M⁻¹ s⁻¹ | 80 nM | 150 nM | inhibition [14]: Active; inhibition [15]: Active; inhibition [16]: Active
5% | CCOC(=O)/C=C/[C@H](O)[C@H](CCc1ccccc1)C(=O)N[C@@H](CC(C)C)C(=O)OCc1ccccc1 | 17% | 0% | 2% |  |  |  |  |  |  |  |  |  | 
3% | CCOC(=O)/C=C/[C@H](O)[C@H](CCc1ccccc1)C(=O)N[C@@H](CC(C)C)C(=O)OC | 0% | 0% | 1% |  |  |  |  |  |  |  |  |  | 
 | CCOC(=O)/C=C/C(=O)[C@H](CCc1ccccc1)NC(=O)[C@H](Cc1ccccc1)NC(=O)N1CCOCC1 | 100% | 100% | 100% | 100% | 97000 M⁻¹ s⁻¹ | 180 nM | 28500 M⁻¹ s⁻¹ | 142000 M⁻¹ s⁻¹ | 300 nM | 23400 M⁻¹ s⁻¹ | 70 nM | 150 nM | IC50 (Plasmodium falciparum): 6810 nM; viability at 24 h, 1 µM [13]: 100%; inhibition [14]: Active; inhibition [15]: Active; inhibition [16]: Active
 | O=C(/C=C/[C@@H](O)[C@H](CCc1ccccc1)NC(=O)[C@H](Cc1ccccc1)NC(=O)OCc1ccccc1)NCc1ccccc1 | 9% | 17% | 1% | 41% |  |  |  |  |  |  |  |  | 

Structure (SMILES) | inhibition [3] | inhibition (Cathepsin B [1]) | inhibition (Procathepsin L [2]) | inhibition [4] | inhibition [5] | K (Cathepsin B [6]) | IC50 (Procathepsin L [7]) | K (Procathepsin L [8]) | K [10] | IC50 (Cruzipain) | K [11] | IC50 (Cathepsin B [12]) | IC50 (Rhodesain) | other results
CCOC(=O)/C=C/C(=O)[C@H](C)NC(=O)[C@H](Cc1ccccc1)NC(=O)OCc1ccccc1 | 99% | 100% | 100% | 100% | 100% | 47000 M⁻¹ s⁻¹ | 80 nM | 197000 M⁻¹ s⁻¹ | 6500 M⁻¹ s⁻¹ | 300 nM | 140000 M⁻¹ s⁻¹ |  |  | IC50 (Falcipain 2): 190 nM; K [9]: 28300 M⁻¹ s⁻¹
O=C(O)/C=C/[C@@H](O)[C@H](CCc1ccccc1)NC(=O)[C@H](Cc1ccccc1)NC(=O)OCc1ccccc1 | 24% | 15% | 47% | 24% | 12% |  |  | 882 M⁻¹ s⁻¹ |  |  |  |  |  | IC50 (Falcipain 2): 75000 nM; K [9]: 29 M⁻¹ s⁻¹
CCOC(=O)/C=C/[C@H](O)[C@H](CCc1ccccc1)NC(=O)[C@H](Cc1ccccc1)NC(=O)OCc1ccccc1 | 22% | 35% | 58% | 32% | 37% | 14 M⁻¹ s⁻¹ | 47000 nM | 77 M⁻¹ s⁻¹ |  |  |  | 52600 nM |  | 
CCOC(=O)/C=C/[C@@H](O)[C@H](CCc1ccccc1)NC(=O)[C@H](Cc1ccccc1)NC(=O)OCc1ccccc1 | 41% | 36% | 57% | 63% | 18% | 772 to 800 M⁻¹ s⁻¹ |  | 1100 M⁻¹ s⁻¹ | 3200 to 3210 M⁻¹ s⁻¹ |  |  |  |  | IC50 (Falcipain 2): 34400 nM; K [9]: 557 M⁻¹ s⁻¹
CCOC(=O)/C=C/[C@@H](O)[C@H](C)NC(=O)[C@H](Cc1ccccc1)NC(=O)OCc1ccccc1 | 41% | 26% | 80% | 63% | 30% |  |  | 828 M⁻¹ s⁻¹ | 11000 M⁻¹ s⁻¹ |  |  |  | 15100 nM | IC50 (Falcipain 2): 26800 nM; K [9]: 2700 M⁻¹ s⁻¹
